Assay results from patent publication US20260258000A1, “THYMIDYLATE SYNTHASE INHIBITORS AND USES THEREOF” (University of Florida Research Foundation, Incorporated, priority 2021, published 2026).
Entries after “also recorded” stand apart in the source; their conditions may differ. Values belong to the compound of their own block, whether it stands above or below them.

Tests used:
[1] = molecular target: T1, human thymidylate synthase (hTS) (Homo sapiens, UniProt P04818); assay: Tritium based TS catalytic activity assay; type: biochemical; conditions: for TS activity (conversion of dUMP): drug 250 μM, 10 μg/mL bacterially expressed TS protein (FIG. 1B); for inhibition of TS catalytic activity, 19-S series library screen: 250 uM (FIG. 4A); for TS inhibition at decreasing drug concentrations: compared with Pem and MTX controls (FIG. 4C)
T1 construct: 6xHis (N); made in house; host or cells: E. coli BL21 (DE3)
Experimental: The catalytic activity of TS was determined by measuring the release of [31] from [5-3H]dUMP (ViTrax, VT122) resulting from the conversion of dUMP to dTMP as previously described12,33. […] Reactions were performed in 50 mM KH2PO4 (Sigma Aldrich, P0662) at pH 7.2 using 2 μg of purified human TS. Reactions were performed in a final volume of 200 μL with 100 mM β-mercaptoethanol (Sigma Aldrich, M7522), 40 μM dUMP (Sigma Aldrich, D3876), 100 μM 5,10-mTHF, and the [5-3H]dUMP tracer (ViTrax, VT122) accounting for 0.06% of the final dUMP concentration in the reaction. […] Reactions were initiated by the addition of the dUMP substrate and 5,10-mTHF cofactor, then incubated at 37° C. for 30 minutes. […] Reactions were terminated by the addition of 100 μL of ice-cold 20% trichloroacetic acid (Sigma Aldrich, T6399), then excess [5-31-]dUMP was removed by the addition of 200 μL of an albumin-coated activated charcoal solution. The albumin-coated activated charcoal solution was prepared by mixing 10 g of acid-washed activated dextran coated charcoal (Sigma Aldrich, C6241) with 2.5 g of bovine albumin (Sigma Aldrich, A1933) in 100 mL of H2O. The suspension was incubated at room temperature for 30 minutes and then centrifuged for 30 minutes at 10,000×g. […] For all experiments, positive control reactions were performed with no drug representing 100% TS activity, and negative control reactions were performed with no TS enzyme or no 5,10-mTHF substrate representing 0% TS activity. All assays were performed in biological duplicate and technical duplicate. Results were analyzed using GraphPad Prism 8.

[2] = tested on: MIA PaCa-2 cells; assay: Cell viability (MTS) assay, MIA PaCa-2; type: cell-based; conditions: Homo sapiens; MIA PaCa-2, 72-hour treatment, highest concentration 350 μM (FIG. 4E)
Experimental: (§1) To prepare lysates, 0.5×10^6 PA NC-1 cells were seeded in 100 mm dishes in 10 ml DMEM High glucose and 24 hours later, 5-FU (Sigma) or 19-S were added at the specified concentrations. Cells were harvested after 72 hours and cell pellets were stored at −80° C. For GI50 determination, 3000 MIA PaCa-2 cells. […] After 72 hours, cell viability was assessed by reduction of MTS ((3-4,5-dimethylthiazol-2-yl)-5-(3-carboxymethoxyphenol)-2-(4-sulfophenyl)-2H-tetrazolium) using Cell Titer 96 R Aqueous One Solution Cell Proliferation Assay Kit (Promega), following manufacturer's recommendations. Chemiluminescent output (integration time 1000 ms) was measured on a SpectraMax M3® (Molecular devices). Data were normalized to max/minutes and plotted in GraphPad Prism for GI50 determination. Chemical synthesis details, including characterization of each compound, can be found in the supporting information document associated with this publication.

[3] = molecular target: T2, DHFR (Homo sapiens, UniProt P00374); assay: Absorbance-based DHFR activity assay; type: biochemical; conditions: for DHFR inhibition at reduced inhibitor concentrations: compared with Pem and MTX controls (FIG. 4D)
T2 construct: purchased Sigma D6566
T2 sequence (P00374 1-187): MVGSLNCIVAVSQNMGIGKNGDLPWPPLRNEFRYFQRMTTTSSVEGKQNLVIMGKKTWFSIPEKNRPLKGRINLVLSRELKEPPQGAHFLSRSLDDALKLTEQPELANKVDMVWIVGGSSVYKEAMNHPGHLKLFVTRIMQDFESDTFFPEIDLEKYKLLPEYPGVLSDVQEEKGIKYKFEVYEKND
Experimental: 6 μL NADPH solution and 5 μL of dihydrofolic acid (DHFR substrate) (Sigma, D7006).

[4] = molecular target: T3, human TS (Homo sapiens, UniProt P04818); assay: Competitive drug displacement assay (tritium TS assay); type: biochemical; conditions: TS pre-incubated with drug; for dUMP conversion with increasing 5,10-mTHF concentration (drug displacement): 5,10-mTHF up to 5×; for dUMP conversion with increasing dUMP concentration (drug displacement): dUMP up to 5×
T3 construct: 6xHis (N); made in house; host or cells: E. coli BL21 (DE3)
Experimental: For these experiments the TS protein was first incubated with each drug, the reaction was then initiated by addition of 5,10-mTHF and dUMP using different concentrations of either 5,10-mTHF or dUMP to change the substrate:drug ratio. If there was competition between one of the substrates and the drug for the same binding site, increasing the substrate concentration will displace more of the pre-bound drug and shift the equilibrium towards the enzyme: substrate complex, thus allowing the conversion of dUMP to proceed (FIG. 5A).
The competitive drug displacement assay utilized the standard reaction conditions for the tritium based TS catalytic activity assay including 40 μM dUMP (Sigma Aldrich, D3876) with the [5-3H]dUMP tracer (ViTrax, VT122) accounting for 0.06% of the final dUMP concentration and 100 μM 5,10-methylene tetrahydrofolate (defined as 1× dUMP and 1×5,10-mTHF). Concentrations of total dUMP and 5,10-mTHF were then changed relative to these 1× concentrations to concisely indicate the changes in either the substrate or cofactor concentration. […] The remaining components in each 200 μL reaction were consistent in all reactions and included 2 μg of purified human TS in 50 mM KH2PO4 (Sigma Aldrich, P0662) and 100 mM β-mercaptoethanol (Sigma Aldrich, M7522).

[5] = tested on: CM cells; assay: Cell viability (MTS) assay, CM; type: cell-based; conditions: 72 hour drug incubation (FIG. 1C)
[6] = tested on: BON cells; assay: Cell viability (MTS) assay, BON; type: cell-based; conditions: 72 hour drug incubation (FIG. 1C)
[7] = tested on: TS protein expression in PANC-1 cells; assay: Immunoblot analysis of TS expression in PANC-1 cells; type: cell-based; conditions: PANC-1 cells treated 72 hours (FIG. 1D)
Experimental: as §1, with “Data were normalized to max/minutes and plotted in GraphPad Prism for GI50 determination. Chemical synthesis details, including characterization of each compound, can be found in the supporting information document associated with this publication.” left out
Protein lysates were generated using RIPA buffer (Santa Cruz) for 20 minutes on ice, followed by 15 minutes centrifugation at 13,000 rpm, at 4° C. […] Protein was quantified using Bradford Assay (BioRad) following manufacturer's recommendations, standard curves were generated with bovine serum albumin (Fisher).
20 μg of total protein lysate was loaded per lane of 10% Tris Glycine Gel (Invitrogen). […] Signal was detected using West Pico Plus chemiluminescent substrate (Thermo Scientific) following manufacturer's recommendations. […] For protein level quantification relative to loading control, densitometric analysis was performed by ImageJ software.

[8] = tested on: Luc-PANC-1 xenograft tumors; assay: Luc-PANC-1 subcutaneous xenograft tumor model; type: in vivo, NSG mice; conditions: 25 mg/kg oral gavage
Experimental: Luc-PANC-1 (5×106) and Luc-CM (0.5×106) cells were resuspended in 200 ul of PBS and injected subcutaneously (SQ) or intraperitonially (IP) to 6-8-week-old NSG mice respectively. Tumor bearing mice were imaged using Xenogen IVIS® Lumina Bioluminescence Imaging System (Perkin Elmer) every week after cell injection. At 4 weeks, animals were randomized based on slope of luciferase signal and treatment was initiated. […] For all animals body weight was recorded weekly and Luc-PANC-1 tumor volume was measured weekly with a caliper. For scheduled sacrifice experiments, animals were euthanized after 4 weeks of treatment. […] Harvested tumors were excised and weighted, and fixed in alcoholic formalin (67.5% Ethanol, 10% Formaldehyde 37%, 22.5% water) for pathology analysis. Tumor volume was calculated as [volume=0.52 (length×width2)].
From this stock, the exact volume needed for daily in vivo delivery was then formulated into 95% corn oil (Mazola) at 2 different concentrations: 1.25 mg/mi (formulation 1) and 3.125 mg/ml (formulation 2). To determine the volume of solution administered to the mice, 200 μl (maximum volume to be delivered in mice via IP or oral gavage) was divided by 25 g of mouse body weight. Therefore, 8 μl of formulation 1 or 2 multiplied by the weight of the mice were used to reach a dose of 10 or 25 mg/kg of body weight, respectively.
Prior to bioluminescence imaging the region where tumors were located was shaved. Mice were then anesthetized with 2.5% isoflurane in 02 then administered the D-luciferin substrate (150 mg/kg in PBS) by IP injection. Following the injection of the D-luciferin substrate mice were imaged using the Xenogen IVIS® Lumina Bioluminescence Imaging System (Perkin Elmer). The peak of luciferase photon flux was recorded 6 minutes after injection of the D-luciferin substrate. The total photon flux was analyzed and restricted to tumor ROI (region of interest) using Living Image v2.60.1 software (Imaging Systems).

[9] = Maximum tolerated dose (MTD) study; type: in vivo
Description: After 3 treatment cycles, animals rested (no treatment) for one more week before euthanasia. Body weight and physical status of all mice were closely monitored. Tissues were collected and fixed in alcoholic formalin to test for toxicity.

T1 sequence (P04818 whole entry): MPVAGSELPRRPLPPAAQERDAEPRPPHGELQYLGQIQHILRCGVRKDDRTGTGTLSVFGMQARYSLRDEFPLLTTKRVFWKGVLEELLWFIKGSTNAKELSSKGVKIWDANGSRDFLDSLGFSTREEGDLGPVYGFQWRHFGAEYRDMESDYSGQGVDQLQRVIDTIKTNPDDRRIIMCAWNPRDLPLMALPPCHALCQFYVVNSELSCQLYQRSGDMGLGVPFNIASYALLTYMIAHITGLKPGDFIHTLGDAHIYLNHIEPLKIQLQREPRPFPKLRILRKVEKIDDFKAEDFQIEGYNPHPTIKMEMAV
T3 sequence (P04818 whole entry): as above

GI50 [2]: > 350000 nM
SMILES: CN(Cc1cnc2nc(N)nc(N)c2n1)c1ccc(C(=O)N[C@@H](CCC(=O)O)C(=O)O)cc1 [MTX, methotrexate, reference compound]

GI50 [2]: > 350000 nM
DHFR inhibition at reduced inhibitor concentrations [3]: less effective against DHFR
dUMP conversion with increasing 5,10-mTHF concentration (drug displacement) [4]: increased the dUMP conversion
dUMP conversion with increasing dUMP concentration (drug displacement) [4]: did not increase dUMP conversion
SMILES: Nc1nc2[nH]cc(CCc3ccc(C(=O)N[C@@H](CCC(=O)O)C(=O)O)cc3)c2c(=O)[nH]1 [Pem, pemetrexed, reference compound]
TS inhibition at decreasing drug concentrations [1]: greater TS inhibition than the MTX antifolate

inhibition of DHFR activity, 19-S series library screen ([3]; 1 μM (FIG. 4B)): exception
SMILES: CCc1nc(N)nc(N)c1-c1ccc(NCCOCCOCCN)c([N+](=O)[O-])c1 [Compound 19-S10]

TS activity (conversion of dUMP) [1]: reduced conversion of dUMP
dUMP conversion with increasing dUMP concentration (drug displacement) [4]: did not show drug displacement
SMILES: O=c1[nH]c(=O)n([C@H]2C[C@H](O)[C@@H](CO)O2)cc1F [FdUrd, 5-fluoro-2′-deoxyuridine, reference compound]

Further lines, the compound ahead of its results:

SMILES: O=c1[nH]c(=O)n([C@@H]2O[C@H](CO)[C@@H](O)[C@H]2O)cc1F [FUrd, 5-fluorouridine, reference compound]
TS activity (conversion of dUMP) [1]: inactive

SMILES: CCc1nc(N)nc(N)c1-c1ccc(N(C)Cc2ccc(OC)cc2)c([N+](=O)[O-])c1 [Compound 19-S5]
inhibition of TS catalytic activity, 19-S series library screen [1]: inhibited TS activity
TS inhibition at decreasing drug concentrations ([1]; listed as 19-55): greater TS inhibition than both MTX and Pen
TS inhibition at decreasing drug concentrations ([1]; listed as 19-85): both strong TS and DHFR inhibition
GI50 [2]: 200 to 840 nM
DHFR inhibition at reduced inhibitor concentrations [3]: both strong TS and DHFR inhibition
dUMP conversion with increasing 5,10-mTHF concentration (drug displacement) [4]: increased the amount of dUMP conversion
dUMP conversion with increasing dUMP concentration (drug displacement) [4]: the amount of dUMP conversion did not increase

SMILES: O=c1[nH]cc(F)c(=O)[nH]1 [Compound 5-FU, 5-fluorouracil, reference compound]
GI50 [5]: 14.8 µM
IC50 [6]: 7.1 µM
TS protein expression (steady-state TS levels) [7]: induced TS expression

SMILES: CCc1nc(N)nc(N)c1-c1ccc(N(C)Cc2ccc3c(c2)OCO3)c([N+](=O)[O-])c1 [Compound 19-S7]
inhibition of TS catalytic activity, 19-S series library screen [1]: inhibited TS activity
TS inhibition at decreasing drug concentrations [1]: greater TS inhibition than both MTX and Pen; also recorded: both strong TS and DHFR inhibition
GI50 [2]: 200 to 840 nM
adverse effects / body weight ([8]; 4 cycles): did not show adverse effects or declines in body weight
tumor progression (photon flux, tumor volume, excised tumor mass) ([8]; 4 cycles (FIGS. 7A-7H)): inhibited tumor progression
mortality ([9]; 50 mg/kg PO, n=3 (FIG. 16B)): found dead after 12th (n=1) and 15th (n=2) dose
MTD ([9]; PO, NSG mice (FIGS. 16A-16B)): 25 mg/kg
DHFR inhibition at reduced inhibitor concentrations [3]: both strong TS and DHFR inhibition
dUMP conversion with increasing 5,10-mTHF concentration (drug displacement) [4]: increased the amount of dUMP conversion
dUMP conversion with increasing dUMP concentration (drug displacement) [4]: the amount of dUMP conversion did not increase
